Patent US7205127B2 (priority 2002, dated 2007)

Experiments:
differentiated L6 cells = experiment: 2-deoxy-glucose transport (glucose uptake) assay in differentiated L6 myotubes; assay type: cell-based, rat
Description: Rat skeletal muscle L6-K cells were grown in minimal essential medium (α-MEM Glutamax I) containing 10% fetal bovine serum at 37° C., 5% CO2. The cells were passaged twice weekly by treatment with trypsin-EDTA and transfer of ⅓ of the cells to new flasks with fresh culture medium. For differentiation into myotubes, 30,000 cells were seeded in 1 ml in 24-well plates. When the cells were confluent, usually after 3 days, the medium was replaced by differentiation medium consisting of α-MEM, 2% fetal bovine serum and penicillin/streptomycin at a concentration of 100 U/ml and 100 μg/ml, respectively. The medium was replaced every 2–3 days. Between days 4–7, differentiation medium containing 1 mM cytidine was used. The cells were differentiated for 8–10 days before being used in experiments.
On the day before the glucose transport assay, the wells of the culture plate were emptied and 1 ml serum free DMEM containing 5 mM glucose and penicillin/streptomycin was added. In some experiments the cells were treated over night with test compounds in 1 ml and additional treatments were added the next day to give a total volume of 2 ml. In these experiments, insulin (100–1000 nM) was added in 0.2 ml. When all treatments were performed after 20–24 h in serum free medium, a total volume of 1 ml was used. The wells were emptied and 0.5 ml prewarmed PBS without Ca^2+/mg^2+ containing 1 μCi/ml radioactive 2-deoxy-glucose added. After 10 min at 37° C., the wells were emptied and washed three times with cold PBS. The cell monolayer was solubilized in 0.5 ml 0.5 M NaOH for 3 h at room temperature. 400 μl was mixed with 8 ml scintillation fluid (Optiphase, Wallac) and counted in a scintillation counter (Packard TriCarb). Two 10-μl aliquots were used for determination of protein concentration using the method according to Bradford (Anal. Biochem., 1976, 72:248–54) from BioRad.
This effect is seen when cells are stimulated with 0.1–10 μM DPI for 1 h. A bell-shaped dose response curve for DPI with an optimum at 1 μM is recorded. The effect of suboptimal concentrations of DPI during a 1 h treatment could be stimulated further if insulin is added 30 min after DPI. However, insulin has little additional effect when the maximum effect of DPI is reached in the 1 h protocol (FIG. 1). The effective concentrations at which DPI stimulates glucose transport corresponds well to the concentrations inhibiting NAD(P)H oxidase activity in cell free systems [O'Donnell et al., Biochemical Journal, 290:41–9 (1993)]. […] On the basis of the above results it is postulated that DPI enhances a constitutive activity of the insulin receptor and/or the intracellular insulin-signaling pathway.
Assuming that the enhancing effect of DPI on insulin signaling was due to inhibition of ROS production, it was investigated whether an exogenous source of H2O2 could counteract the effect of DPI. To this end, L6 cells were treated with 25 mU/ml of glucose oxidase for 30 min before addition of DPI.

C57BL/6J ob/ob mice = details: 1 mg/kg i.p. once daily for 4 days
Description: Studies were conducted in vivo, in an animal model of obesity characterized by insulin resistance. Eight-month old C57BL/6J ob/ob mice (M&B A/S, Denmark) were matched for sex, weight and fasting blood glucose concentrations. The animals were injected intraperitoneally once daily with DPI (1 mg/kg) or water for 4 days. On day 5, the animals were fasted for 2.5 h and then given an i.p. injection of human insulin 0.5 U/kg (Actrapid, Novo Nordisk, Denmark) and their blood glucose levels were monitored for 4 h by sampling from the tail. The glucose concentration was determined using a Glucometer Accutrend Sensor (Roche).

[1] = test system: thioredoxin-gp91phox fusion protein; details: in the presence of NAD(P)H and FAD; cited from earlier work
NAD(P)H oxidase = target: T1, NAD(P)H oxidase (Homo sapiens, UniProt P19878); details: most likely via binding to p67phox; cited from earlier work
T1 sequence (P19878 1-526): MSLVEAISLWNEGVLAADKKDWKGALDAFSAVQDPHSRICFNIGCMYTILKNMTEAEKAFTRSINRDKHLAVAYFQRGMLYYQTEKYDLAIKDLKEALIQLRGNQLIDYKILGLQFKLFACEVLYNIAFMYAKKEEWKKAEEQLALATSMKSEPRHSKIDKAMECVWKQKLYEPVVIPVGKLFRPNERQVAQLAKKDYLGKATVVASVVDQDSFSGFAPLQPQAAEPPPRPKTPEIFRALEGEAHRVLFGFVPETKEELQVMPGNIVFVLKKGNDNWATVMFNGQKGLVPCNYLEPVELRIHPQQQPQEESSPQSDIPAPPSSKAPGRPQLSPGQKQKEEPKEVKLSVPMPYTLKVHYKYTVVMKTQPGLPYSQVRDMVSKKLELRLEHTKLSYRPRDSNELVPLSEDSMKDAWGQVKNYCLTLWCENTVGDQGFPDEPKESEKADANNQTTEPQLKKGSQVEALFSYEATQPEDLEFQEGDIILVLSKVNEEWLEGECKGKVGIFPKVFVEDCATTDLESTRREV

Molecule: c1ccc2c(c1)[I+]c1ccccc1-2 [DPI, Diphenylene iodonium]
- optimum of bell-shaped dose response curve for glucose uptake (differentiated L6 cells; 1 h treatment): 1 µM
- reduction of stimulatory effect on glucose transport by glucose oxidase (differentiated L6 cells; L6 cells treated with 25 mU/ml glucose oxidase for 30 min before addition of DPI (FIG. 2)): 68%
- concentrations at which the increase in glucose uptake is seen (differentiated L6 cells; cells stimulated for 1 h): 0.1 to 10 µM
- glucose uptake (differentiated L6 cells; differentiated L6 cells incubated with DPI for 1 h (FIG. 1)): significant increase
- side effects of treatment (C57BL/6J ob/ob mice; ob/ob mice): Without any overt side effects
- blood glucose levels versus control group (C57BL/6J ob/ob mice; 1–4 h after injection of insulin 0.5 U/kg (FIG. 3)): significantly lower blood glucose levels
- diaphorase activity of thioredoxin-gp91phox fusion protein [1]: inhibited

Molecule: Mastoparan
- NAD(P)H oxidase activation (NAD(P)H oxidase): inhibit NAD(P)H oxidase activation

Molecule: insulin: bovine insulin purchased from Sigma, used to stimulate glucose transport
- reduction of insulin stimulated glucose transport by glucose oxidase (differentiated L6 cells; L6 cells treated with 25 mU/ml glucose oxidase, 200 nM insulin (FIG. 2)): 65%
